Laboratory results published in patent publication EP4711356A1, “TETRAHYDROCARBAZOLE DERIVATIVE, PHARMACEUTICAL COMPOSITION, AND USE THEREOF” (Nain Biotech (Hangzhou) Co., Ltd., priority 2023, dated 2024).

Assays:
[1] = test system: HeLa cells; assay: Cell-based pharmacodynamic assay (CellTiter-Glo proliferation inhibition), HeLa; details: human cervical cancer HeLa cells; 72 hours incubation; CellTiter-Glo luminescence; read-out: IC50 against HeLa cells
Outline: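 Cells seeded overnight in line-specific media with FBS, then dosed from DMSO stocks (20 mM stock) for 72 h at 37 °C, 5% CO2. Viability by CellTiter-Glo luminescence; inhibition normalised to DMSO and blank wells, IC50 from four-parameter fit.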

[2] = Cell-based pharmacodynamic assay (CellTiter-Glo proliferation inhibition), tumor cell line panel; details: Homo sapiens; one range stated for all 22 listed ovarian, liver, lung, melanoma, pancreatic, colorectal, renal, prostate, gastric, tongue, leukemia and rhabdomyosarcoma cell lines
Protocol: Complete media such as RPMI 1640 (Gibco, A1049101), EMEM (ATCC, 30-2003), DMEM (Gibco, C11995500CP), McCoy's 5A (Gibco, 16600082), and F-12K (ATCC, 30-2004) were prepared by supplementing with varying concentrations of FBS (Biological Industries, 04-002-1A) and 1% Penicillin-Streptomycin (Gibco, 15140122) and was thoroughly mixed. Tumor cell lines including HeLa (ATCC, CCL-2; EMEM + 10% FBS), TOV-21G (Cobioer, CBP60292; 1:1 mixture of MCDB 105 and Medium 199 + 15% FBS), OVCAR-3 (ATCC, HTB-161; RPMI 1640 + 20% FBS + 0.01 mg/ml bovine insulin), SK-OV-3 (ATCC, HTB-77; McCoy's 5A + 10% FBS), A2780 (Cobioer, CBP60283; RPMI 1640 + 10% FBS), OC316 (Cobioer, CBP60620; RPMI 1640 + 10% FBS), HuH-7 (Cobioer, CBP60202; DMEM + 10% FBS), SNU-398 (ATCC, CRL-2233; RPMI 1640 + 10% FBS), NCI-H2286 (ATCC, CRL-5938; RPMI 1640 + 5% FBS), NCI-H82 (ATCC, HTB-175; RPMI 1640 + 10% FBS), A549 (ATCC, CCL-185; F-12K + 10% FBS), SK-MEL-3 (ATCC, HTB-69; McCoy's 5A + 15% FBS), PSN-1 (Cobioer, CBP61215; RPMI 1640 + 10% FBS), LoVo (ATCC, CCL-229; F-12K + 10% FBS), DLD-1 (ATCC, CCL-221; RPMI 1640 + 10% FBS), HCT-15 (ATCC, CCL-225; RPMI 1640 + 10% FBS), A498 (ATCC, HTB-44; EMEM + 10% FBS), LNCaP (ATCC, CRL-1740; RPMI 1640 + 10% FBS), SNU-1 (ATCC, CRL-5971; RPMI 1640 + 10% FBS), SCC-9 (Cobioer, CBP60428; DMEM/F12 (1:1) + 10% FBS + 0.5 mM sodium pyruvate + 400 ng/ml hydrocortisone), SU-DHL-5 (ATCC, CRL-2958; RPMI 1640 + 10% FBS), Toledo (ATCC, CRL-2631; RPMI 1640 + 10% FBS), and SJCRH30 (ATCC, CRL-2061; RPMI 1640 + 10% FBS) were thawed. Cells were passaged approximately twice, and those in good growth condition (typically passages 4-6) were selected for experiments. The medium was aspirated, and the cells were washed once with 0.25% trypsin (Invitrogen, 25200-072). The waste liquid was discarded, and 3 mL of fresh trypsin was added to the culture flask for digestion. […] The plates were placed in an Enspire reader (luminescence measurement time: 0.5 s) to record luminescence results. […]

[3] = test system: HeLa cell line; details: compared to the control drug ellipticine; Tunbridge et al., 2013; cited from earlier work

SMILES | IC50 [1] [nM] | IC50 [2] [nM] | inhibitory activity against the HeLa cell line [3]
CCOC(=O)c1cccc2[nH]c3c(c12)CCCC3=O [Compound B16] | ≤ 200 | 200 to 10000 | 
Cn1ncc(-c2cccc3[nH]c4c(c23)CCCC4=O)n1 [Compound B67] | ≤ 200 | 200 to 10000 | 
CCCCCC(=O)n1c2c(c3c(C(=O)OCC)cccc31)CCCC2=O [Compound C05] | ≤ 200 | 200 to 10000 | 
Cc1ccc2[nH]c3c(c2c1)CCCC3=NC1CCN(CC(F)(F)F)CC1 [Compound E42] | ≤ 200 |  | 
Cc1ccc2[nH]c3c(c2c1)CCCC3=NC1CCN(S(=O)(=O)C(C)C)CC1 [Compound E43] | ≤ 200 |  | 
Cc1ccc2[nH]c3c(c2c1)CCCC3=NC(C)C(=O)OC(C)(C)C (stereo not drawn) [Compound E44] | ≤ 500 |  | 
COCCN=C1CCCc2c1[nH]c1ccc(C)cc21 [Compound E45] | ≤ 200 |  | 
COCCOC1CCC(N=C2CCCc3c2[nH]c2ccc(C)cc32)CC1 (stereo not drawn) [Compound E46] | ≤ 200 |  | 
COC(=O)c1cccc2[nH]c3c(c12)CCCC3=NC(C)C [Compound E47] | ≤ 200 |  | 
CCN=C1CCCc2c1[nH]c1cccc(C(=O)OC)c21 [Compound E48] | ≤ 200 |  | 
Cc1ccc2[nH]c3c(c2c1)C(C)CCC3=NCC(=O)OC(C)(C)C (stereo not drawn) [Compound E49] | ≤ 500 |  | 
Cc1ccc2[nH]c3c(c2n1)CCCC3=NCCO [Compound E50] | ≤ 200 |  | 
Cc1cccc2[nH]c3c(c12)CCCC3=NCC(=O)OC(C)(C)C [Compound E52] | ≤ 200 |  | 
Cc1cccc2[nH]c3c(c12)CCCC3=NCCO [Compound E54] | ≤ 200 |  | 
Cc1ccc2[nH]c3c(c2c1)CCCC3=NC(CC(=O)OC(C)(C)C)C(=O)OC(C)(C)C (stereo not drawn) [Compound E55] | ≤ 200 |  | 
Cc1ccc2[nH]c3c(c2c1)CCCC3=NC(C(=O)OC(C)(C)C)C(C)C (stereo not drawn) [Compound E56] | ≤ 200 |  | 
CCCCCN=C1CCCc2c1[nH]c1ccc(C)cc21 [Compound E57] | ≤ 200 |  | 
COC(=O)c1cccc2[nH]c3c(c12)CCCC3=NCC(C)(C)O [Compound E61] | ≤ 200 |  | 
COC(=O)c1cccc2[nH]c3c(c12)CCCC3=NC1CCN(C)CC1 [Compound E62] | ≤ 200 |  | 
CCC(CO)N=C1CCCc2c1[nH]c1ccc(C)cc21 (stereo not drawn) [Compound E63] | ≤ 500 |  | 
CCC(CO)N=C1CCCc2c1[nH]c1ccc(C)cc21 (stereo not drawn) [Compound E64] | ≤ 500 |  | 
Cc1ccc2[nH]c3c(c2c1)CCCC3=NC1CCN(CC(F)(F)F)CC1C (stereo not drawn) [Compound E65] | ≤ 200 |  | 
Cc1ccc2[nH]c3c(c2c1)CCCC3=NC1CCN(S(=O)(=O)C(C)C)CC1C (stereo not drawn) [Compound E66] | ≤ 200 |  | 
Cc1ccc2[nH]c3c(c2c1)CCCC3=NCCNC(=O)OC(C)(C)C [Compound E67] | ≤ 200 |  | 
Cc1ccc2[nH]c3c(c2c1)CCCC3=NCCN [Compound E68] | ≤ 200 |  | 
COC(=O)c1cccc2[nH]c3c(c12)CCCC3=NC(C)C(F)(F)F (stereo not drawn) [Compound E69] | ≤ 200 |  | 
COC(=O)c1cccc2[nH]c3c(c12)CCCC3=NC(C)C(F)(F)F (stereo not drawn) [Compound E70] | ≤ 200 |  | 
CSCCC(N=C1CCCc2c1[nH]c1ccc(C)cc21)C(=O)OC(C)(C)C (stereo not drawn) [Compound E71] | ≤ 200 |  | 
CN=C1CCCc2c1[nH]c1cccc(C(=O)OC)c21 [Compound E72] | ≤ 200 |  | 
COc1cc2c(c(N)c1OC)C(=O)/C(=C\c1cc(C)c(O)c(C)c1)C2 [indanocine] |  |  | superior inhibitory activity
